What was measured:
[1] = Cell viability assay (MTT), normal cells; assay type: cell-based; conditions: human, MCF-10A normal mammary gland epithelial cells, four-day incubation
prostatic - PC-3 = test: Antiproliferative assay (MTT) PC-3; conditions: for IC50: read-out: Antiproliferative activity IC50 ± SEM (µM) PC-3, PC-3, MTT
breast - MCF-7 = test: Antiproliferative assay (MTT) MCF-7; conditions: for IC50: read-out: Antiproliferative activity IC50 ± SEM (µM) MCF-7, MCF-7, MTT
colon - HCT-116 = test: Antiproliferative assay (MTT) HCT-116; conditions: for IC50: read-out: Antiproliferative activity IC50 ± SEM (µM) HCT-116, HCT-116, MTT
- MDAMB-231 = test: Antiproliferative assay (MTT) MDAMB-231
pancreatic - MDAMB-231 = test: Antiproliferative assay (MTT) MDAMB-231; conditions: read-out: Antiproliferative activity IC50 ± SEM (µM) MDAMB-231; MDAMB-231, MTT
[2] = tested on: four human cancer cell lines (HCT-116, PC-3, MCF-7, MDAMB-231); test: Antiproliferative assay, mean of four cell lines (GI50); conditions: for Reduced potency compared to doxorubicin (GI50) / Reduced potency compared to sorafenib (GI50): GI50 ratio; for IC50: Homo sapiens, read-out: GI50 (average IC50)
tubulin = test: Tubulin polymerization inhibition assay (Cytoskeleton kit); conditions: for Tub %inh: 30 min, YB-EGY run; for Tub K.Activity: EC = 120, YB-EGY run; for IC50: read-out: Tubulin inhibition IC50 ± SEM, triplicate for each tested concentration;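 for all read-outs here: Cell-free tubulin polymerization read by fluorescent reporter enhancement over a 30 min reaction, with the compound-free kit control taken as 100% activity and inhibition relative to it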

Cc1nc(SCC(=O)Nc2nc(-c3ccc(Cl)cc3)cs2)sc1C(=O)/C=C/c1ccc(F)cc1 [Compound 10h, (E)-N-(4-(4-chlorophenyl)thiazol-2-yl)-2-((5-(3-(4-fluorophenyl)acryloyl)-4-methylthiazol-2-yl)thio)acetamide]
viability at 96 h, 50 µM [1]: 85% | Average of Relative viability of cells (%) (prostatic - PC-3; PC-3, 1.56 µM): 100% | Average of Relative viability of cells (%) (prostatic - PC-3; PC-3, 3.125 µM): 100% | Average of Relative viability of cells (%) (prostatic - PC-3; PC-3, 6.25 µM): 100% | Average of Relative viability of cells (%) (prostatic - PC-3; PC-3, 12.5 µM): 93.5% | Average of Relative viability of cells (%) (prostatic - PC-3; PC-3, 25 µM): 72.4% | Average of Relative viability of cells (%) (prostatic - PC-3; PC-3, 50 µM): 55.8% | Average of Relative viability of cells (%) (prostatic - PC-3; PC-3, 100 µM): 36.5% | IC50 (prostatic - PC-3): 61 ± 3.5 µM | Average of Relative viability of cells (%) (breast - MCF-7; MCF-7, 1.56 µM): 100% | Average of Relative viability of cells (%) (breast - MCF-7; MCF-7, 3.125 µM): 94.8% | Average of Relative viability of cells (%) (breast - MCF-7; MCF-7, 6.25 µM): 76.5% | Average of Relative viability of cells (%) (breast - MCF-7; MCF-7, 12.5 µM): 53.9% | Average of Relative viability of cells (%) (breast - MCF-7; MCF-7, 25 µM): 50.2% | Average of Relative viability of cells (%) (breast - MCF-7; MCF-7, 50 µM): 37.1% | Average of Relative viability of cells (%) (breast - MCF-7; MCF-7, 100 µM): 23.6% | IC50 (breast - MCF-7): 24 ± 1.7 µM | Average of Relative viability of cells (%) (colon - HCT-116; HCT-116, 1.56 µM): 100% | Average of Relative viability of cells (%) (colon - HCT-116; HCT-116, 3.125 µM): 97.6% | Average of Relative viability of cells (%) (colon - HCT-116; HCT-116, 6.25 µM): 79.5% | Average of Relative viability of cells (%) (colon - HCT-116; HCT-116, 12.5 µM): 69.3% | Average of Relative viability of cells (%) (colon - HCT-116; HCT-116, 25 µM): 52.8% | Average of Relative viability of cells (%) (colon - HCT-116; HCT-116, 50 µM): 39.4% | Average of Relative viability of cells (%) (colon - HCT-116; HCT-116, 100 µM): 20.2% | IC50 (colon - HCT-116): 29 ± 1.9 µM | Average of Relative viability of cells (%) (- MDAMB-231; MDAMB-231, 1.56 µM): 100% | Average of Relative viability of cells (%) (- MDAMB-231; MDAMB-231, 3.125 µM): 85.7% | Average of Relative viability of cells (%) (- MDAMB-231; MDAMB-231, 6.25 µM): 68.5% | Average of Relative viability of cells (%) (- MDAMB-231; MDAMB-231, 12.5 µM): 47.4% | Average of Relative viability of cells (%) (- MDAMB-231; MDAMB-231, 25 µM): 37.1% | Average of Relative viability of cells (%) (- MDAMB-231; MDAMB-231, 50 µM): 26.7% | Average of Relative viability of cells (%) (- MDAMB-231; MDAMB-231, 100 µM): 21.6% | IC50 (pancreatic - MDAMB-231): 15 ± 1.3 µM | Reduced potency compared to doxorubicin (GI50) [2]: at least 2.5 fold | Reduced potency compared to sorafenib (GI50) [2]: ≥ 1.5 fold | IC50 [2]: 32 µM | Tub %inh (tubulin; conc 0.1 (unit not given)): 9.85% | Tub K.Activity (tubulin; conc 0.1 (unit not given)): 108.18 | Tub %inh (tubulin; conc 1 (unit not given)): 26.6% | Tub K.Activity (tubulin; conc 1 (unit not given)): 88.132 | Tub %inh (tubulin; conc 10 (unit not given)): 44.8% | Tub K.Activity (tubulin; conc 10 (unit not given)): 66.269 | Tub %inh (tubulin; conc 50 (unit not given)): 65.5% | Tub K.Activity (tubulin; conc 50 (unit not given)): 41.405 | Tub %inh (tubulin; conc 100 (unit not given)): 84.5% | Tub K.Activity (tubulin; conc 100 (unit not given)): 18.607 | IC50 (tubulin): 7.95 ± 0.24 µM

Cc1ccc(/C=C/C(=O)c2sc(SCC(=O)Nc3nc(-c4ccccc4)cs3)nc2C)cc1 [Compound 10d, (E)-2-((4-methyl-5-(3-(p-tolyl)acryloyl)thiazol-2-yl)thio)-N-(4-phenylthiazol-2-yl)acetamide]
viability at 96 h, 50 µM [1]: 90% | Average of Relative viability of cells (%) (prostatic - PC-3; PC-3, 1.56 µM): 100% | Average of Relative viability of cells (%) (prostatic - PC-3; PC-3, 3.125 µM): 86.5% | Average of Relative viability of cells (%) (prostatic - PC-3; PC-3, 6.25 µM): 69.6% | Average of Relative viability of cells (%) (prostatic - PC-3; PC-3, 12.5 µM): 52.3% | Average of Relative viability of cells (%) (prostatic - PC-3; PC-3, 25 µM): 36.4% | Average of Relative viability of cells (%) (prostatic - PC-3; PC-3, 50 µM): 27.9% | Average of Relative viability of cells (%) (prostatic - PC-3; PC-3, 100 µM): 18.7% | IC50 (prostatic - PC-3): 16 ± 1.3 µM | Average of Relative viability of cells (%) (breast - MCF-7; MCF-7, 1.56 µM): 97.5% | Average of Relative viability of cells (%) (breast - MCF-7; MCF-7, 3.125 µM): 84.1% | Average of Relative viability of cells (%) (breast - MCF-7; MCF-7, 6.25 µM): 57.3% | Average of Relative viability of cells (%) (breast - MCF-7; MCF-7, 12.5 µM): 39.2% | Average of Relative viability of cells (%) (breast - MCF-7; MCF-7, 25 µM): 22.6% | Average of Relative viability of cells (%) (breast - MCF-7; MCF-7, 50 µM): 20.4% | Average of Relative viability of cells (%) (breast - MCF-7; MCF-7, 100 µM): 8.1% | IC50 (breast - MCF-7): 10 ± 0.8 µM | Average of Relative viability of cells (%) (colon - HCT-116; HCT-116, 1.56 µM): 100% | Average of Relative viability of cells (%) (colon - HCT-116; HCT-116, 3.125 µM): 91.5% | Average of Relative viability of cells (%) (colon - HCT-116; HCT-116, 6.25 µM): 73.6% | Average of Relative viability of cells (%) (colon - HCT-116; HCT-116, 12.5 µM): 50.2% | Average of Relative viability of cells (%) (colon - HCT-116; HCT-116, 25 µM): 41.9% | Average of Relative viability of cells (%) (colon - HCT-116; HCT-116, 50 µM): 29.7% | Average of Relative viability of cells (%) (colon - HCT-116; HCT-116, 100 µM): 22.4% | IC50 (colon - HCT-116): 19 ± 1.5 µM | Average of Relative viability of cells (%) (- MDAMB-231; MDAMB-231, 1.56 µM): 89.2% | Average of Relative viability of cells (%) (- MDAMB-231; MDAMB-231, 3.125 µM): 69.3% | Average of Relative viability of cells (%) (- MDAMB-231; MDAMB-231, 6.25 µM): 60.4% | Average of Relative viability of cells (%) (- MDAMB-231; MDAMB-231, 12.5 µM): 31.6% | Average of Relative viability of cells (%) (- MDAMB-231; MDAMB-231, 25 µM): 25.8% | Average of Relative viability of cells (%) (- MDAMB-231; MDAMB-231, 50 µM): 16.9% | Average of Relative viability of cells (%) (- MDAMB-231; MDAMB-231, 100 µM): 13.9% | IC50 (pancreatic - MDAMB-231): 8 ± 0.7 µM | Reduced potency compared to doxorubicin (GI50) [2]: at least 2.5 fold | Reduced potency compared to sorafenib (GI50) [2]: ≥ 1.5 fold | IC50 [2]: 13 µM | Tub %inh (tubulin; conc 0.1 (unit not given)): 17.5% | Tub K.Activity (tubulin; conc 0.1 (unit not given)): 98.945 | Tub %inh (tubulin; conc 1 (unit not given)): 26.6% | Tub K.Activity (tubulin; conc 1 (unit not given)): 88.129 | Tub %inh (tubulin; conc 10 (unit not given)): 45.2% | Tub K.Activity (tubulin; conc 10 (unit not given)): 65.722 | Tub %inh (tubulin; conc 50 (unit not given)): 71.7% | Tub K.Activity (tubulin; conc 50 (unit not given)): 33.903 | Tub %inh (tubulin; conc 100 (unit not given)): 91.1% | Tub K.Activity (tubulin; conc 100 (unit not given)): 10.641 | IC50 (tubulin): 5.26 ± 0.16 µM

— paper PMC12040969, “Design, synthesis, in silico studies, and apoptotic antiproliferative activity of novel thiazole-2-acetamide derivatives as tubulin polymerization inhibitors” (Frontiers in Chemistry, 2025)
